Values after ≈ are worked out from the molar mass of the structure shown.
Experiments:
[1] = Caco-2 permeation assay (Method 5); assay type: in vitro ADME; conditions: human, Caco-2, pH 7.2, 2 μM test compound; for Papp A→B at 2 h, 2 µM: read-out: Papp A-B (Mari); for Papp B→A at 2 h, 2 µM: read-out: Papp B-A (Mari); for efflux ratio at 2 h, 2 µM: Papp B-A / Papp A-B
Method: 5. Caco-2 Permeation Assay:
Caco-2 cells (purchased from DSMZ Braunschweig, Germany) were seeded at a density of 4.5×10^4 cells per well on 24 well insert plates, 0.4 μm pore size, and grown for 15 days in DMEM medium supplemented with 10% fetal bovine serum, 1% GlutaMAX (100×, GIBCO), 100 U/mL penicillin, 100 μg/mL streptomycin (GIBCO) and 1% non essential amino acids (100×). Cells were maintained at 37° C. in a humidified 5% CO2 atmosphere. Medium was changed every 2-3 day. Before running the permeation assay, the culture medium was replaced by a FCS-free hepes-carbonate transport buffer (pH 7.2). For assessment of monolayer integrity the transepithelial electrical resistance (TEER) was measured. Test compounds were predissolved in DMSO and added either to the apical or basolateral compartment in final concentration of 2 μM in transport buffer. Before and after 2 h incubation at 37° C. samples were taken from both compartments. Analysis of compound content was done after precipitation with methanol by LC/MS/MS analysis. Permeability (Papp) was calculated in the apical to basolateral (A→B) and basolateral to apical (B→A) directions. The apparent permeability was calculated using following equation: Papp=(Vr/Po)(1/S)(P2/t)
Where Vr is the volume of medium in the receiver chamber, Po is the measured peak area or height of the test drug in the donor chamber at t=o, S the surface area of the monolayer, P2 is the measured peak area of the test drug in the acceptor chamber after 2 h of incubation, and t is the incubation time. The efflux ratio basolateral (B) to apical (A) was calculated by dividing the Papp B-A by the Papp A-B. In addition the compound recovery was calculated. The following reference compounds were used for the classification of the permeability class: Antipyrine, Pyrazosin, Verapamil, Fluvastatin, Cimetidine, Ranitidine, Atenolol, Sulfasalazine.

[2] = target: T1, human carbonic anhydrase-1 (Homo sapiens, UniProt P00915); assay: Carbonic anhydrase assay, carbonic anhydrase-1 (Method 6); assay type: biochemical; conditions: read-out: Inhibition of Carbonic anhydrase-1 IC50
T1 construct: purchased Sigma C4396
T1 sequence (P00915 whole entry): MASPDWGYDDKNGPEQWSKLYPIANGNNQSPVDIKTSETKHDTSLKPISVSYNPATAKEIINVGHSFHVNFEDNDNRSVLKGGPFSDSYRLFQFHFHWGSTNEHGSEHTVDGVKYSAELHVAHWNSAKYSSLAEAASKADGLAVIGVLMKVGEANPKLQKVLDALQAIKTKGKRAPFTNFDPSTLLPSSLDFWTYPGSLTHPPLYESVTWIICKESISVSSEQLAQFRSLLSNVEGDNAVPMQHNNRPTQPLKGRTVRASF
Method: 6. Carbonic Anhydrase Assay
The principle of the assay is based on the hydrolysis of 4-nitrophenyl acetate by carbonic anhydrases (Pocker & Stone, Biochemistry, 1967, 6, 668), with subsequent photometric determination of the dye product 4-nitrophenolate at 400 nm by means of a 96-channel spectral photometer.
2 μL of the test compounds, dissolved in DMSO (100-fold final concentration), in a concentration range of 0.03-10 μmol/L (final), was pipetted as quadruplicates into the wells of a 96-hole microtiter plate. Wells that contained the solvent without test compounds were used as reference values (1. Wells without carbonic anhydrase for correction of the non-enzymatic hydrolysis of the substrate, and 2. Wells with carbonic anhydrase for determining the activity of the non-inhibited enzyme).
188 μL of assay buffer (10 mmol/L of Tris/HCl, pH 7.4, 80 mmol/L of NaCl), with or without 3 units/well of carbonic anhydrase-1 [=human carbonic anhydrase-1 (Sigma, #C4396)] in order to determine carbonic anhydrase-1 inhibition or 3 units/well of carbonic anhydrase-2 [=human carbonic anhydrase-2 (Sigma, #C6165)] for measuring carbonic anhydrase-2 inhibition, was pipetted into the wells of the microtiter plate.

[3] = Equilibrium shake flask solubility assay, thermodynamic solubility in citrate buffer pH 4 (Method 4b); assay type: physicochemical; conditions: aqueous buffer, thermodynamic from solid; citrate buffer pH 4, 24 h, room temperature; read-out: Solubility in Citrate buffer pH4
Method: 4b) Thermodynamic Solubility in Citrate Buffer pH 4
Thermodynamic solubility was determined by an equilibrium shake flask method [Literature: Edward H. Kerns and Li Di (2008) Solubility Methods in: Drug-like Properties: Concepts, Structure Design and Methods, p 276-286. Burlington, Mass.: Academic Press].
A saturated solution of the drug was prepared and the solution was mixed for 24 h to ensure that equilibrium has been reached. The solution was centrifuged to remove the insoluble fraction and the concentration of the compound in solution was determined using a standard calibration curve.
To prepare the sample, 1.5 mg solid compound was weighed in a 4 ml glass vial. 1 ml Citrate buffer pH 4 was added. The suspension was put on a stirrer and mixed for 24 hrs at room temperature. The solution was centrifuged afterwards. To prepare the sample for the standard calibration, 0.6 mg solid sample was dissolved in 19 ml acetonitrile/water 1:1. After sonification the solution was filled up with acetonitrile/water 1:1 to 20 ml.
Sample and standards were quantified by HPLC with UV-detection. For each sample two injection volumes (5 and 50 μl) in triplicates were made. Three injection volumes (5 μl, 10 μl and 20 μl) were made for the standard.
Citrate buffer pH 4 (MERCK Art. 109435; 1 L buffer consisting of 11,768 g citric acid,
4,480 g sodium hydroxide, 1,604 g hydrogen chloride)
Chromatographic conditions were as follows:
HPLC column: Xterra MS C18 2.5 μm 4.6×30 mm
Injection volume: Sample: 3×5 μl and 3×50 μl
• Standard: 5 μl, 10 μl, 20 μl Flow: 1.5 ml/min Mobile phase: acidic gradient: • A: Water/0.01% TFA • B: Acetonitrile/0.01% TFA • 0 min: 95% A 5% B • 0-3 min: 35% A 65% B, linear gradient • 3-5 min: 35% A 65% B, isocratic • 5-6 min: 95% A 5% B, isocratic UV detector: wavelength near the absorption maximum (between 200 and 400 nm)
The areas of sample- and standard injections as well as the calculation of the solubility value (in mg/l) were determined by using HPLC software (Waters Empower 2 FR).

Papp A→B at 2 h, 2 µM [1] [×10⁻⁶ cm/s] | Papp B→A at 2 h, 2 µM [1] [×10⁻⁶ cm/s] | efflux ratio at 2 h, 2 µM [1] | IC50 [2] [µM] | solubility at 24 h [3] [µg/mL] | SMILES
2.6 | 24.3 | 9.3 | > 10 |  | COc1cc(F)ccc1-c1cc(Nc2cc(CS(C)(=N)=O)ccn2)ncn1 (racemic) [Example 1, (rac)-6-(4-Fluoro-2-methoxyphenyl)-N-{4-[(S-methylsulfonimidoyl)methyl]pyridin-2-yl}pyrimidin-4-amine]
 |  |  |  | 15 (≈ 35.6 µM) | COc1cc(F)ccc1-c1cc(Nc2cc(CS(C)(=N)=O)cc(Cl)n2)ncn1 (racemic) [Example 4, (rac)-N-{6-Chloro-4-[(S-methylsulfonimidoyl)methyl]pyridin-2-yl}-6-(4-fluoro-2-methoxyphenyl)pyrimidin-4-amine]
3.9 | 28.9 | 7.49 |  | 157 (≈ 391 µM) | COc1cc(F)ccc1-c1cc(Nc2cc(CS(C)(=N)=O)cc(C)n2)ncn1 (racemic) [Example 7, (rac)-6-(4-Fluoro-2-methoxyphenyl)-N-{6-methyl-4-[(S-methylsulfonimidoyl)methyl]pyridin-2-yl}pyrimidin-4-amine]
4.5 | 20.6 | 4.58 |  | 11 (≈ 24.2 µM) | COc1cc(F)ccc1-c1cc(Nc2cc(CS(C)(=N)=O)cc(C(F)(F)F)n2)ncn1 (racemic) [Example 10, (rac)-6-(4-Fluoro-2-methoxyphenyl)-N-{4-[(S-methylsulfonimidoyl)methyl]-6-(trifluoromethyl)pyridin-2-yl}pyrimidin-4-amine]
